Data from patent US20020107209A1, “Triterpene saponins from soybeans for treating kidney disease” (priority 2000, published 2002).

Columns and labels:
pcy mouse model of PKD = assay: 90-day feeding trial in pcy mice: casein-based diet supplemented with Novasoy 400 or soyasaponin Bb concentrate; format: in vivo; conditions: for effect on attenuation of kidney size and cyst development: pcy mouse model of PKD, summary in words
Protocol: Experiments were conducted with a purified soyasaponin Bb concentrate for a feeding trial in the pcy mice.
The feeding trial, which followed the acquisition of this soyasaponin Bb concentrate, explored the possibility that this concentrate was an important contributor to the attenuation of disease progression in the pcy mouse. The protocol used in this trial involved the random assignment of young, male pcy mice to one of three dietary treatments and feeding these diets for 90 days, the usual time frame in these studies. The diets used in this feeding trial were:1) an unsupplemented casein-based diet, known to increase the severity of the renal cystic disease; 2) this casein-based diet supplemented with Novasoy 400®, a new, isoflavone-enhanced product containing low levels of the soyasaponins (ADM, Decatur, Ill.) or 3) the casein-based diet supplemented with the purified soyasaponin Bb concentrate prepared by Drs. Collins and Sarr.
After three months the mice were humanely euthanized and the kidney and liver tissues removed and stored at −80 degrees Celsius until measurements of tissue water content and cell volume could be taken. Organ water content was determined in the kidney and liver by measuring the difference between the wet weight of the tissue and its subsequent weight after freeze-drying. Plasma, obtained by centrifugation of the cardiac blood, was used for standard measurements of renal function, including total protein, urea, and creatinine concentrations. Soy protein fractions enriched in the soyasaponins are reportedly hypocholesterolemic when fed to hamsters (Gatchalian-Yee M. et al. Nutrition. 13:633-639,1997) and plasma cholesterol levels were also measured in the present experiment whenever the sample volume was adequate. Differences between treatment effects were assessed by a one-way ANOVA and the significance of these differences between means obtained by the Tukey's Honestly Significant Different Test.

[1] = tested on: rodent models of polycystic kidney disease (PKD); assay: Casein-based diet supplemented with crude saponin-enriched alcohol extract (SEAE), ginseng, genistein or L-arginine; earlier experiment; format: in vivo, mice; conditions: supplementation of the casein-based diet
Excerpt: These beneficial effects appeared unique to the saponins derived from soybeans as supplementation of the casein-based diet with (1) ginseng (also a saponin), (2) genistein, (an isoflavone naturally present in SPI) or (3) addition of the amino acid L-arginine to the casein to mimic the amino acid composition to that of the SPI had no effect on disease progression.
The major component of the SEAE was identified as soyasaponin Bb with smaller amounts of two or three unidentified saponins and trace amounts of genistein and daidzen, two naturally occurring isoflavones in soy protein. The inventors determined that the Group B soybean-derived saponins (soyasaponins), especially soyasaponin Bb, was an important contributor to the attenuation of cyst growth.

[2] = pcy mice, 90 days, plasma from cardiac blood, mean ± SEM
[3] = pcy mice, 90 days, versus casein
[4] = pcy mice, 90 days, versus unsupplemented casein diet
[5] = pcy mice, diet fed 90 days, mean ± SEM
[6] = pcy mice, diet fed 90 days, mean ± SEM, 8 animals/group

SMILES | daily food intake (pcy mouse model of PKD; pcy mice, 90-day feeding trial) | Plasma cholesterol (pcy mouse model of PKD; [2]) | Plasma creatinine (pcy mouse model of PKD; [2]) | Plasma total protein (pcy mouse model of PKD; [2]) | Plasma urea (pcy mouse model of PKD; [2]) | absolute and relative kidney weight and kidney water content (pcy mouse model of PKD; [3]) | relative liver weight (pcy mouse model of PKD; [3]) | plasma cholesterol levels (pcy mouse model of PKD; [4]) | plasma creatinine levels (pcy mouse model of PKD; [4]) | Kidney water content (g/left kidney) (pcy mouse model of PKD; pcy mice, 90 days, wet weight minus freeze-dried weight, mean ± SEM) | Final body wt (pcy mouse model of PKD; [5]) | Liver water content (pcy mouse model of PKD; [5]) | Liver wt (pcy mouse model of PKD; [5]) | Liver wt (g/100 g body wt) (pcy mouse model of PKD; [5]) | Total kidney wt (pcy mouse model of PKD; [6]) | Total kidney wt (g/100 g body wt) (pcy mouse model of PKD; [6]) | effect on attenuation of kidney size and cyst development (pcy mouse model of PKD) | effect on attenuation of kidney size and cyst development (pcy mouse model of PKD; listed as soyasaponin Bb concentrate) | effect on disease progression [1]
C[C@@H]1O[C@@H](O[C@H]2[C@H](O[C@H]3[C@H](O[C@H]4CC[C@@]5(C)[C@@H](CC[C@]6(C)[C@@H]5CC=C5[C@@H]7CC(C)(C)C[C@@H](O)[C@]7(C)CC[C@]56C)[C@@]4(C)CO)O[C@H](C(=O)O)[C@@H](O)[C@@H]3O)O[C@H](CO)[C@H](O)[C@@H]2O)[C@H](O)[C@H](O)[C@H]1O [soyasaponin Bb, 3-O-(α-L-rhamnosyl-1→2-β-D-galactosyl-1→2-β-D-glucuronosyl)-soyasapogenol B] | 3.3 ± 0.0 g/day | 4.8 ± 0.3 mM/L | 17.5 ± 1.9 µM | 54.3 ± 1.1 g/L | 19.5 ± 3.0 mM/L | marked reduction | not observed | lesser hypocholesterolemic effect | markedly reduced | 0.61 ± 0.1 g/left kidney | 25.1 ± 0.1 g | 0.82 ± 0.0 g | 1.2 ± 0.2 g | 4.6 ± 0.1 g/100 g body wt | 1.3 ± 0.1 g | 5.2 ± 0.3 g/100 g body wt | important beneficial effect | marked beneficial effect | –
O=c1c(-c2ccc(O)cc2)coc2cc(O)cc(O)c12 [genistein] | – | – | – | – | – | – | – | – | – | – | – | – | – | – | – | – | – | – | no effect
N=C(N)NCCC[C@H](N)C(=O)O [L-arginine] | – | – | – | – | – | – | – | – | – | – | – | – | – | – | – | – | – | – | no effect
